Results as given in US20060263238A1, “Decontamination of biological microbes using quaternary ammonium surfactants at elevated temperatures” (priority 2005, published 2006).

Columns and labels:
B. globigii spores [1] = assay: Spore decontamination followed immediately by dilution and plating (CFU titer); assay type: cell-based, Bacillus globigii; details: for reduction of spores: 1% surfactant in water, >10^7 spores/ml, apparently independent of pH; for sporicidal (bacterial) activity: in the presence of moderate applied heat
Protocol: In the examples, below, three representative quaternary ammonium surfactants were tested for decontamination of Bacillus spores. The three exemplified quaternary ammonium surfactants are hexadecyltrimethylammonium chloride, dicocodimethylammonium chloride, and alkyldimethylbenzylammonium chloride. All three quaternary ammonium surfactants were dissolved in water and tested over a pH range. Testing occurred with and without applied heat. All experiments were performed with at least 3-4 replicates with many experiments reproduced numerous times.
(§1) Bacillus spores were suspended in the appropriate solvent at a concentration of 2 mg spores/ml (approximately 2×10^8 spores/ml). Starting volume of 1.125 ml of spores at 2 mg/ml. 3 or 4 spore aliquots of 50 μl per aliquot were removed. These aliquots were serially diluted in 1×PBS and plated on LB or TSA agar plates. This is a control step that gave the spore titer or colony-forming units (CFUs) at Time=0 minutes (T0). The appropriate decontamination solution (2× concentration) was aliquoted into each of 3 or 4 Eppendorf tubes with 200 ul per tube. Then 200 ul of spores were added and mixed to give a final concentration of 1× decontamination solution and 1 mg spores/ml. The spores in decontamination solution were then mixed and incubated for specific time periods and temperatures. A typical incubation was in a room temperature (25° C.) water bath for 30 (or 60) minutes. There was no agitation during the incubation period in order to mimic real world situations. Aliquots of spores were removed after 30 (or 60) minutes. The aliquots (3 or 4 replicates) were serially diluted in 1×PBS and plated on LB or TSA agar plates. This gave a CFU at Time=30 minutes (T30), which is the titer of live spores after the decontamination test. After removing the aliquots at the 30-minute time point, test (or control) samples were then immediately incubated in a 70° C. water bath for another 30 minutes. The samples were then serially diluted and plated on to LB or TSA agar plates to determine the titer after the 70° C. incubation. The entire dilution series from 0.1 through 0.000001 dilutions were plated. An optional wash assay was employed to confirm that the surfactant was killing spores rather than behaving as a bacterostatic agent. The wash assay included centrifuging and washing spores after decontamination. 100 ul of spores (after decontamination) were added to 200 ul of water and centrifuged at 10,000×g for one minute at room temperature. The supernatant was removed and saved. 10% of the supernatant volume was plated and titered as a wash control, to determine if live spores were being removed in the supernatant. Spore pellets were suspended in 1 ml of water and then pelleted at 10,000×g for one minute at room temperature. The supernatant was removed and saved. Spore pellets were washed again with 1 ml of water. Then spore pellets were suspended, serially diluted and plated. This removed the surfactant prior to plating and confirmed results that were bactericidal rather than bacterostatic.

B. globigii spores [2] = assay: Optional wash assay (surfactant removed by centrifuging and washing spores before plating); assay type: cell-based, Bacillus globigii; details: between pH5 and pH7 at 70° C.; for reduction of spore decontamination (wash assay): data not shown
Protocol: as §1
An optional wash assay was employed to verify the results (data not shown). […]

[3] = 30 minutes at 25° C. (room temperature)

Compound | reduction of spores (B. globigii spores [1]; [3]) | reduction of spores (B. globigii spores [1]; 30 minutes at 70° C., complete) | sporicidal (bacterial) activity (B. globigii spores [1]) | spores alive out of the original 10-100 million spores (wash assay) (B. globigii spores [2]) | reduction of spore decontamination (wash assay) (B. globigii spores [2])
dicocodimethylammonium chloride | approximately 1 order-of-magnitude | greater than 7 orders-of-magnitude | strong sporicidal (bacterial) activity | less than 10 thousand | over 4 orders-of-magnitude
CCCCCCCCCCCCCCCC[N+](C)(C)C.[Cl-] [hexadecyltrimethylammonium chloride] | approximately 1 order-of-magnitude | greater than 7 orders-of-magnitude | strong sporicidal (bacterial) activity | less than 10 thousand | over 4 orders-of-magnitude
alkyldimethylbenzylammonium chloride | approximately 1 order-of-magnitude | greater than 7 orders-of-magnitude | strong sporicidal (bacterial) activity | – | –
